Results as given in ChEMBL document CHEMBL3217523, “Design and syntheses of some iminosugar derivatives as potential immunosuppressants” (Medchemcomm, 2011).
pIC50: −log10 of the molar value. Active and inactive are the calls of the source. No cut-off for these calls is given here.

Key:
[1] = (§1) Antiproliferative activity against Con A-induced BALB/c mouse splenocytes at 30 uM after 48 hrs by CCK-8 method relative to control; assay type: functional; conditions: Splenocyte
[2] = Cytotoxicity against BALB/c mouse splenocytes up to 110 uM after 48 hrs by CCK-8 method; assay type: cell-based; conditions: splenocyte
[3] = Antiproliferative activity against Con A-induced BALB/c mouse splenocytes after 48 hrs by CCK-8 method relative to control; assay type: functional, cell-based; conditions: Splenocyte
[4] = test system: Splenocyte; test: as §1; assay type: functional

Row | Compound | inhibition at 30 µM [1] [%] | other results
1 | OC[C@H]1N[C@H](CCl)[C@H](O)[C@@H](O)[C@H]1O | 20.8 | –
2 | CCCCCCN1[C@H](CO)[C@H](O)C(O)[C@@H](O)[C@H]1CO (stereo not given in full) | 25.5 | –
3 | OC[C@H]1C[C@@H](O)[C@@H](O)[C@@H](CO)N1 | 22.3 | –
4 | OCCC[C@H]1N[C@@H](CO)[C@H](O)[C@H](O)[C@H]1O | 19.3 | –
5 | CCCCCCCCCN1[C@H](CCl)[C@H](O)[C@@H](O)[C@@H](O)[C@@H]1CO | 43.6 | Activity [2]: Non-toxic; pIC50 [3]: 4.35
6 | OC[C@H]1N[C@H](CO)[C@H](O)C(O)[C@H]1O (stereo not given in full) | 7.8 | –
7 | CCCCCCCCCN1[C@H](CO)[C@H](O)[C@H](O)[C@@H](O)[C@H]1CCl | 54.1 | Activity [2]: Non-toxic; pIC50 [3]: 4.66
8 | O=C(O)[C@@H]1N[C@@H](CO)[C@H](O)[C@H](O)[C@H]1O | 21.2 | –
9 | OC[C@@H]1N[C@H](CO)[C@H](O)[C@@H](O)[C@H]1O | 9.7 | –
10 | N#CC[C@H]1N[C@H](CO)[C@H](O)[C@H](O)[C@H]1O | 27.9 | –
11 | CCCCCCN1[C@H](CO)[C@H](O)[C@H](O)[C@@H](O)[C@H]1CCl | 38.9 | –
12 | O=C(O)CC[C@H]1N[C@H](CO)[C@H](O)[C@H](O)[C@H]1O | 4.9 | –
13 | O=C(O)[C@H]1N[C@H](CO)[C@H](O)[C@H](O)[C@H]1O | 7.2 | –
14 | O=C(O)[C@H]1N[C@@H](CO)[C@H](O)[C@H](O)[C@H]1O | – | inhibition [4]: inactive
15 | OCCC[C@H]1N[C@H](CO)[C@H](O)[C@H](O)[C@H]1O | 14.6 | –
16 | O=C(O)CC[C@H]1N[C@@H](CO)[C@H](O)[C@H](O)[C@H]1O | 6.4 | –
